Tested on: MDRPA
Experiment: Checkerboard assay (combined-use MIC, FIC)
Type: cell-based, Pseudomonas aeruginosa
Details: for FIC, all strains / MIC50 of the antibiotic after combined use / MIC90 of the antibiotic after combined use / reduction of the antibiotic's MIC50 vs single use / reduction of the antibiotic's MIC90 vs single use / share of strains with FIC ≤ 0.5: 20 MDRPAs
Method: Test methods of the sensibilization effects of the test product to similar antibiotics: it is operated by referring to a checkerboard assay recommended by NCCLS.
The checkerboard assay is performed in a 96-pore sterile culture plate.
Calculation of a Fractional Inhibitory Concentration (FIC): FIC=S20b combined-use MIC/S20b single-use MIC+antibiotic combined-use MIC/antibiotic single-use MIC. By calculating the FIC, the combined antibacterial interaction between the EA and the antibiotic is evaluated, with synergistic effect for FIC≤0.5, additive effect for 0.5<FIC≤1, indifferent effect for 1<FIC≤2 and antagonistic effect for FIC>2. According to a sterile growth pore, the optimum concentration ratio between the EA and the antibiotic is founded out. At last, the effect of the EA to strengthen the efficacy of the antibiotic is evaluated.

[1] = antibiotic with 10% ethanol extract
[2] = antibiotic with 60% ethanol extract
[3] = antibiotic with 95% ethanol extract
[4] = antibiotic with EA (water extract)

## CCN1CCN(C(=O)N[C@@H](C(=O)N[C@@H]2C(=O)N3C(C(=O)O)=C(CSc4nnnn4C)CS[C@H]23)c2ccc(O)cc2)C(=O)C1=O [CFP, Cefoperazone]
[1]
  FIC, all strains: ≤ 2
  MIC50 of the antibiotic after combined use: 4 µg/mL
  MIC90 of the antibiotic after combined use: 256 µg/mL
  reduction of the antibiotic's MIC50 vs single use: 93.75%
  reduction of the antibiotic's MIC90 vs single use: 50%
  share of strains with FIC ≤ 0.5: 35%
[2]
  FIC, all strains: ≤ 2
  MIC50 of the antibiotic after combined use: 4 µg/mL
  MIC90 of the antibiotic after combined use: 256 µg/mL
  reduction of the antibiotic's MIC50 vs single use: 93.75%
  reduction of the antibiotic's MIC90 vs single use: 50%
  share of strains with FIC ≤ 0.5: 20%
[3]
  FIC, all strains: ≤ 2
  MIC50 of the antibiotic after combined use: 4 µg/mL
  MIC90 of the antibiotic after combined use: 128 µg/mL
  reduction of the antibiotic's MIC50 vs single use: 93.75%
  reduction of the antibiotic's MIC90 vs single use: 75%
  share of strains with FIC ≤ 0.5: 40%
[4]
  FIC, all strains: ≤ 2
  MIC50 of the antibiotic after combined use: 0.5 µg/mL
  MIC90 of the antibiotic after combined use: 256 µg/mL
  reduction of the antibiotic's MIC50 vs single use: 99.2%
  reduction of the antibiotic's MIC90 vs single use: 50%
  share of strains with FIC ≤ 0.5: 35%
Strain P1, EA (P. clypearia 10% ethanol extract) combined with CFP
  combined-use MIC: 32 µg/mL
Strain P1, EA (P. clypearia water extract) combined with CFP
  combined-use MIC: 32 µg/mL
Strain P2, EA (P. clypearia 10% ethanol extract) combined with CFP
  combined-use MIC: 128 µg/mL
Strain P2, EA (P. clypearia water extract) combined with CFP
  combined-use MIC: 128 µg/mL
Strain P3, EA (P. clypearia 10% ethanol extract) combined with CFP
  combined-use MIC: 2 µg/mL
Strain P3, EA (P. clypearia water extract) combined with CFP
  combined-use MIC: 2 µg/mL
Strain P4, EA (P. clypearia 10% ethanol extract) combined with CFP
  combined-use MIC: 4 µg/mL
Strain P4, EA (P. clypearia water extract) combined with CFP
  combined-use MIC: 4 µg/mL
Strain P5, EA (P. clypearia 10% ethanol extract) combined with CFP
  combined-use MIC: 256 µg/mL
Strain P5, EA (P. clypearia water extract) combined with CFP
  combined-use MIC: 256 µg/mL
Strain P6, EA (P. clypearia 10% ethanol extract) combined with CFP
  combined-use MIC: 256 µg/mL
Strain P6, EA (P. clypearia water extract) combined with CFP
  combined-use MIC: 256 µg/mL
Strain P7, EA (P. clypearia 10% ethanol extract) combined with CFP
  combined-use MIC: 8 µg/mL
Strain P7, EA (P. clypearia water extract) combined with CFP
  combined-use MIC: 16 µg/mL
Strain P8, EA (P. clypearia 10% ethanol extract) combined with CFP
  combined-use MIC: 0.5 µg/mL
Strain P8, EA (P. clypearia water extract) combined with CFP
  combined-use MIC: 0.5 µg/mL
Strain P9, EA (P. clypearia 10% ethanol extract) combined with CFP
  combined-use MIC: 32 µg/mL
Strain P9, EA (P. clypearia water extract) combined with CFP
  combined-use MIC: 32 µg/mL
Strain P10, EA (P. clypearia 10% ethanol extract) combined with CFP
  combined-use MIC: 2 µg/mL
Strain P10, EA (P. clypearia water extract) combined with CFP
  combined-use MIC: 0.5 µg/mL
Strain P11, EA (P. clypearia 10% ethanol extract) combined with CFP
  combined-use MIC: 4 µg/mL
Strain P11, EA (P. clypearia water extract) combined with CFP
  combined-use MIC: 4 µg/mL
Strain P12, EA (P. clypearia 10% ethanol extract) combined with CFP
  combined-use MIC: 2 µg/mL
Strain P12, EA (P. clypearia water extract) combined with CFP
  combined-use MIC: 0.5 µg/mL
Strain P13, EA (P. clypearia 10% ethanol extract) combined with CFP
  combined-use MIC: 32 µg/mL
Strain P13, EA (P. clypearia water extract) combined with CFP
  combined-use MIC: 32 µg/mL
Strain P14, EA (P. clypearia 10% ethanol extract) combined with CFP
  combined-use MIC: 0.25 µg/mL
Strain P14, EA (P. clypearia water extract) combined with CFP
  combined-use MIC: 0.5 µg/mL
Strain P15, EA (P. clypearia 10% ethanol extract) combined with CFP
  combined-use MIC: 8 µg/mL
Strain P15, EA (P. clypearia water extract) combined with CFP
  combined-use MIC: 16 µg/mL
Strain P16, EA (P. clypearia 10% ethanol extract) combined with CFP
  combined-use MIC: 256 µg/mL
Strain P16, EA (P. clypearia water extract) combined with CFP
  combined-use MIC: 256 µg/mL
Strain P17, EA (P. clypearia 10% ethanol extract) combined with CFP
  combined-use MIC: 0.5 µg/mL
Strain P17, EA (P. clypearia water extract) combined with CFP
  combined-use MIC: 0.5 µg/mL
Strain P18, EA (P. clypearia 10% ethanol extract) combined with CFP
  combined-use MIC: 128 µg/mL
Strain P18, EA (P. clypearia water extract) combined with CFP
  combined-use MIC: 128 µg/mL
Strain P19, EA (P. clypearia 10% ethanol extract) combined with CFP
  combined-use MIC: 0.5 µg/mL
Strain P19, EA (P. clypearia water extract) combined with CFP
  combined-use MIC: 0.5 µg/mL
Strain P20, EA (P. clypearia 10% ethanol extract) combined with CFP
  combined-use MIC: 1 µg/mL
Strain P20, EA (P. clypearia water extract) combined with CFP
  combined-use MIC: 0.5 µg/mL

— patent publication US11793849B2, “Method of Chinese herbal medicine extract used for treating multiple diseases caused by drug resistant bacteria infection” (priority 2016, dated 2023)
